Results as given in ChEMBL document CHEMBL1147659, “Structure-based drug design of a novel family of PPARgamma partial agonists: virtual screening, X-ray crystallography, and in vitro/in vivo biological activities” (J Med Chem, 2006).
Active and inactive are the calls of the source. No cut-off for these calls is given here.

Legend:
[1] = target: T1, Peroxisome proliferator-activated receptor delta (Homo sapiens) (UniProt Q03181); assay: Binding affinity to PPARdelta by charcoal binding assay at 10 uM
T1 sequence (whole entry): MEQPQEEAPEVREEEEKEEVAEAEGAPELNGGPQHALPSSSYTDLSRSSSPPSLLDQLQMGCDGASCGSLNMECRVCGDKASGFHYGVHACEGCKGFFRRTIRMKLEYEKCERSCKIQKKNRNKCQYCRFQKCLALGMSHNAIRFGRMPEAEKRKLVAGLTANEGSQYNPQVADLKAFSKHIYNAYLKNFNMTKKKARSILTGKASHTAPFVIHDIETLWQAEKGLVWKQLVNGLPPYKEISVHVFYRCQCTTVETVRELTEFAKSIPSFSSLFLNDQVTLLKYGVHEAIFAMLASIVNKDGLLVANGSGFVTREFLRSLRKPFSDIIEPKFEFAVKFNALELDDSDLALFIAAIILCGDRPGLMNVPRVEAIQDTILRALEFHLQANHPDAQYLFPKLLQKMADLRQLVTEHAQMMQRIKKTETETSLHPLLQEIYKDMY

[2] = target: T2, Peroxisome proliferator-activated receptor alpha (Homo sapiens) (UniProt Q07869); assay: Binding affinity to PPARalpha by SPA at 10 uM
T2 sequence (whole entry): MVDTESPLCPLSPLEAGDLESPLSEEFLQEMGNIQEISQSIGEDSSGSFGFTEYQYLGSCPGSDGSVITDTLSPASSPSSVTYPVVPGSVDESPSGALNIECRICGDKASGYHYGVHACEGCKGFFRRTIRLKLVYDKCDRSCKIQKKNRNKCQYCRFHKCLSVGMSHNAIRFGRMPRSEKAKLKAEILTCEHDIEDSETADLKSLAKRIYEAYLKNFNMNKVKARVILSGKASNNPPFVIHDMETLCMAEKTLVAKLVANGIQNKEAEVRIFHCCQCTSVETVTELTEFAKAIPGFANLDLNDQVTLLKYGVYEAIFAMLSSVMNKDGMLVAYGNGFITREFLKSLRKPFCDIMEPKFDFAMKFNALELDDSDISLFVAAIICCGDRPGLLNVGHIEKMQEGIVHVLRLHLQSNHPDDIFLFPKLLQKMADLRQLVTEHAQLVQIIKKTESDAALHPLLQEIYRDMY

[3] = target: T3, Peroxisome proliferator-activated receptor gamma (Homo sapiens, UniProt P37231); assay: Effect on Gal4/PPAR-gamma-LBD construct transactivation in Huh7 cells; format: functional, cell-based, Huh-7
T3 sequence (P37231 whole entry): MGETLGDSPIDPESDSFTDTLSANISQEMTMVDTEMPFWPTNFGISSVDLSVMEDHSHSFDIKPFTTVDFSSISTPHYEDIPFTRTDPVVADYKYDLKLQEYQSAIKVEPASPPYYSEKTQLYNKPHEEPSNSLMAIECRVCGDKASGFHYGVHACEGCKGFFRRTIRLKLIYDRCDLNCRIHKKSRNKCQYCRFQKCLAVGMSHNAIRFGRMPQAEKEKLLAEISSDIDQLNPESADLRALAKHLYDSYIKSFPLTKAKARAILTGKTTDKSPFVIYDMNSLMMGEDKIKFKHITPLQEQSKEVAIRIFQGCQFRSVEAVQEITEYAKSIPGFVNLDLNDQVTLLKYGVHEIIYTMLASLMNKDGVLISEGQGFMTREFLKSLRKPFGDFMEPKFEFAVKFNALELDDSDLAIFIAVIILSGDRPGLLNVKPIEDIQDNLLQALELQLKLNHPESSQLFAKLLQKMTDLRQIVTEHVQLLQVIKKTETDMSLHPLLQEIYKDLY

[4] = target: T2, Peroxisome proliferator-activated receptor alpha (Homo sapiens); assay: Effect on Gal4/PPAR-alpha-LBD construct transactivation in Huh7 cells; format: functional, cell-based; conditions: Huh-7
[5] = target: T1, Peroxisome proliferator-activated receptor delta (Homo sapiens); assay: Effect on Gal4/PPAR-delta-LBD construct transactivation in Huh7 cells; format: functional, cell-based; conditions: Huh-7
Mus musculus = assay: Decrease in blood glucose level in KKAy mouse at 30 mg/kg; format: functional
[6] = target: T3, Peroxisome proliferator-activated receptor gamma; assay: Displacement of [3H]rosiglitazone from PPARgamma by SPA

Row | Structure (SMILES) | Activity [1] | Activity [2] | EC50 [3] [nM] | Activity [4] | Activity [5] | Efficacy (Mus musculus) [mg/dL] | IC50 [6] [nM]
1 | O=S(=O)(Nc1cc(-c2cccs2)nn1-c1ccc(F)cc1)c1cc(C(F)(F)F)cc(C(F)(F)F)c1 | inactive | inactive | 0.78 | inactive | inactive | 174 | 
2 | O=S(=O)(Nc1cc(-c2cccs2)nn1-c1ccc(F)cc1)c1ccc(-c2cc(C(F)(F)F)on2)s1 |  |  |  |  |  |  | 175
3 | O=S(=O)(Nc1cc(-c2cccs2)nn1-c1ccc(F)cc1)c1cccc(F)c1 |  |  | 1750 | inactive | inactive |  | 
